US12453733B2, “Composition for prevention or treatment of intractable epilepsy comprising mTOR inhibitor” (SoVarGen Co., Ltd., priority 2015, dated 2025)
“Also recorded” adds a separate entry of the source.

Key:
Format in all cases: cell-based, human
[1] = tested on: TSC2 mutant-expressing HEK293T cells; experiment: Western blot of S6K phosphorylation in TSC2 mutant-expressing HEK293T cells after drug treatment; settings: Example 11; FIGS. 25a and 25b
Method: (§1) Briefly, HEK293T cells (Thermo Scientific) were cultured in DMEM (Dulbecco's Modified Eagle's Medium) supplemented with 10% FBS at 37° C. and 5% CO2. The cells were transfected with empty flag-tagged vector, HA-tagged TSC1 wild-type, HA-tagged TSC2 wild-type, HA-tagged AKT3 wild-type, HA-tagged TSC1 mutant, HA-tagged TSC2 mutant and HA-tagged AKT3 mutant, respectively, using jetPRIME transfection reagent (Polyplus, France).
(§2) The cells were serum-starved with 0.1% FBS in DMEM for 24 hours after transfection and then incubated at 37° C. and 5% CO2 in PBS containing 1 mM MgCl2 and CaCl2 for 1 hour. The cells were lysed with PBS containing 1% Triton X-100 and Halt protease and phosphatase inhibitor cocktail (78440, Thermo Scientific, USA). Proteins were resolved by SDS-PAGE and transferred to PVDF membranes (Millipore, USA). The membranes were blocked with 3% BSA in TBS containing 0.1% Tween 20 (TBST). They were washed 4 times with TBST. The membranes were incubated overnight with primary antibodies including a 1/1000 dilution of anti-phospho-S6 ribosomal protein (5364, Cell Signaling Technology, USA), anti-56 ribosomal protein (2217, Cell Signaling Technology, USA), and anti-flag M2 (8164, Cell Signaling Technology, USA) in TBST at 4° C., respectively. After incubation, the membranes were washed 4 times with TBST. […]

[2] = tested on: mutant mTOR-expressing HEK293T cells; experiment: Western blot of S6/S6K phosphorylation in mutant mTOR-expressing HEK293T cells after drug treatment; settings: for phosphorylation of S6K in all the mutant mTOR-expressing cells: Y1450D, C1483R, R1709H, Y1977K, S2215F, L2427P, L2427Q
Method: HEK293T cells (Thermo Scientific) was cultured in DMEM (Dulbecco's Modified Eagle's Medium) containing 10% FBS at 37° C. and 5% CO2. The cells were transfected with empty flag-tagged vector, flag-tagged mTOR wild type, and flag-tagged mTOR mutants using jetPRIME transfection reagent (Polyplus, France). The cells were serum-starved with DMEM containing 0.1% FBS for 24 hours after transfection and then incubated at 37° C. and 5% CO2 in PBS containing 1 mM MgCl2 and CaCl2 for 1 hour. The cells were lysed with PBS containing 1% Triton X-100 and Halt protease and phosphatase inhibitor cocktail (78440, Thermo Scientific, USA).
Proteins were resolved by SDS-PAGE and transferred to PVDF membranes (Millipore, USA). The membranes were blocked with 3% BSA in TBS containing 0.1% Tween 20 (TBST). They were washed 4 times with TBST. The membranes were each incubated overnight at 4° C. with primary antibodies including a 1/1000 dilution of anti-phospho-S6 ribosomal protein (5364, Cell Signaling Technology, USA), anti-56 ribosomal protein (2217, Cell Signaling Technology, USA), and anti-flag M2 (8164, Cell Signaling Technology, USA) in TBST. After incubation, the membranes were washed 4 times with TBST. They were incubated with a 1/5000 dilution of HRP-linked anti-rabbit or anti-mouse secondary antibodies (7074, Cell Signaling Technology, USA) for 2 hours at room temperature. After washing with TBST, immunodetection was performed using ECL reaction reagents.
Transfection of mTOR mutants into HEK293T cells was carried out in the same manner as in Example 3-2. Then, the cells were serum-starved with DMEM containing 0.1% FBS for 24 hours and incubated at 37° C. and 5% CO2 in PBS containing 1 mM MgCl2 and CaCl2 for 1 hour, followed by treatment with rapamycin, everolimus, or compounds of Chemical Formulas 1 to 4 (Torinl, INK128, AZD8055, GSK2126458); Torin was purchased from TOCRIS, INK128, AZD8055, and GSK2126458 were provided from Selleckchem, and everolimus was purchased from LC laboratory. Subsequently, Western blotting was performed in the same manner as in Example 9.
Cells expressing various mTOR mutations were treated in the same manner as in Example 3-2 with rapamycin, everolimus, or the compounds of Chemical Formulas 1 to 4 and monitored for S6K phosphorylation. The mTOR mutations were R624H, Y1450D, C1483R, R1709H, Y1977K, S2215F, L2427P, and L2427Q. […]
Cells expressing various mTOR mutations were treated in the same manner as in Example 9-1 with rapamycin, everolimus, or the compounds of Chemical Formulas 1 to 4, and monitored for S6K phosphorylation. […]

[3] = tested on: TSC1 mutant-expressing HEK293T cells; experiment: Western blot of S6K phosphorylation in TSC1 mutant-expressing HEK293T cells after drug treatment; settings: Example 11; FIGS. 24a and 24b
Method: as §1, §2

Structure (SMILES): CO[C@H]1C[C@@H]2CC[C@@H](C)[C@@](O)(O2)C(=O)C(=O)N2CCCC[C@H]2C(=O)O[C@H]([C@H](C)C[C@@H]2CC[C@@H](OCCO)[C@H](OC)C2)CC(=O)[C@H](C)/C=C(\C)[C@@H](O)[C@@H](OC)C(=O)[C@H](C)C[C@H](C)/C=C/C=C/C=C/1C [everolimus]
- S6K phosphorylation in TSC2 mutant-expressing cells [1]: inhibit
- phosphorylation of S6K in mutant mTOR-expressing cells ([2]; Example 3-4, HEK293T, Western blot, FIGS. 9a to 9c): inhibited; also recorded: reduce
- phosphorylation of S6K in all the mutant mTOR-expressing cells ([2]; Example 3-5, mutations R624H, FIGS. 13 and 14): inhibited
- phosphorylation of S6 in mutant mTOR-expressing cells ([2]; Example 10-1, FIG. 22, mTOR L2427P-expressing cells): inhibited
- phosphorylation of S6K in all the mutant mTOR-expressing cells ([2]; Example 10-2, variants R624H, FIGS. 23a and 23b): inhibited
- S6K phosphorylation in TSC1 mutant-expressing cells [3]: inhibit
